The text below walks through data of ChEMBL document CHEMBL1255382, “Genetic mapping of targets mediating differential chemical phenotypes in Plasmodium falciparum” (Nat Chem Biol, 2009).

Assay [1] relates to Plasmodium falciparum. The assay is described as follows: microbe, parasite or virus in culture. It counts as functional, organism-based, W2. Conditions: for IC50: Plasmodium falciparum, W2, 72 h.
Description: Antiplasmodial activity against Plasmodium falciparum W2 after 72 hrs by SYBR green assay
Assay [2] relates to Plasmodium falciparum. The assay is described as follows: microbe, parasite or virus in culture. Conditions: HB3, 72 h.
Description: Antiplasmodial activity against Plasmodium falciparum HB3 after 72 hrs by SYBR green assay
Assay [3] has as its system Plasmodium falciparum. The assay is described as follows: microbe, parasite or virus in culture. The assay is classed as functional, organism-based. Particulars: 7G8, 72 h.
Description: Antiplasmodial activity against Plasmodium falciparum 7G8 after 72 hrs by SYBR green assay
Assay [4] has as its system Plasmodium falciparum. The assay is described as follows: microbe, parasite or virus in culture. Conditions: GB4, 72 h. The assay is classed as functional, organism-based.
Description: Antiplasmodial activity against Plasmodium falciparum GB4 after 72 hrs by SYBR green assay
For assay [5], the system named is Plasmodium falciparum. The assay is described as follows: microbe, parasite or virus in culture. Conditions: D10, 72 h.
Description: Antiplasmodial activity against Plasmodium falciparum D10 after 72 hrs by SYBR green assay
For assay [6], the system named is Plasmodium falciparum. The assay is described as follows: microbe, parasite or virus in culture. Conditions: Dd2, 72 h.
Description: Antiplasmodial activity against Plasmodium falciparum Dd2 after 72 hrs by SYBR green assay
Assay [7] relates to Plasmodium falciparum. The assay is described as follows: microbe, parasite or virus in culture. The assay is classed as functional, organism-based. Particulars: 3D7, 72 h.
Description: Antiplasmodial activity against Plasmodium falciparum 3D7 after 72 hrs by SYBR green assay
For assay [8], the system named is Plasmodium falciparum. The assay is described as follows: microbe, parasite or virus in culture. Particulars: KC5, 72 h.
Description: Antiplasmodial activity against Plasmodium falciparum KC5 after 72 hrs by SYBR green assay
Assay [9] relates to Plasmodium falciparum. The assay is described as follows: microbe, parasite or virus in culture. Conditions: JON, 72 h.
Description: Antiplasmodial activity against Plasmodium falciparum JON after 72 hrs by SYBR green assay
Assay [10] relates to Plasmodium falciparum. The assay is described as follows: microbe, parasite or virus in culture. Particulars: D2, 72 h.
Description: Antiplasmodial activity against Plasmodium falciparum D2 after 72 hrs by SYBR green assay
In assay [11] the test system is Plasmodium falciparum. The assay is described as follows: microbe, parasite or virus in culture. Particulars: Dd2, 72 h. The source holds these as a separate data set.
Description: Antiplasmodial activity against transgenic Plasmodium falciparum Dd2 pDT harboring polymorphic DHFR after 72 hrs by SYBR green assay
Assay [12] deals with Plasmodium falciparum. The assay is described as follows: microbe, parasite or virus in culture. Particulars: TF1, 72 h.
Description: Antiplasmodial activity against Plasmodium falciparum TF1 after 72 hrs by SYBR green assay
In assay [13] the test system is Plasmodium falciparum. The assay is described as follows: microbe, parasite or virus in culture. Conditions: D10, 72 h. The source holds these as a separate data set.
Description: Antiplasmodial activity against Plasmodium falciparum D10 harboring polymorphic DHFR after 72 hrs by SYBR green assay
Assay [14] deals with Plasmodium falciparum. The assay is described as follows: microbe, parasite or virus in culture. Particulars: JB8, 72 h.
Description: Antiplasmodial activity against Plasmodium falciparum JB8 after 72 hrs by SYBR green assay
Assay [15] has as its system Plasmodium falciparum. The assay is described as follows: microbe, parasite or virus in culture. Particulars: XF12, 72 h.
Description: (§1) Antiplasmodial activity against Plasmodium falciparum XF12 after 72 hrs by SYBR green assay
Assay [16] deals with Plasmodium falciparum. The assay is described as follows: microbe, parasite or virus in culture. Conditions: XD8, 72 h.
Description: Antiplasmodial activity against Plasmodium falciparum XD8 after 72 hrs by SYBR green assay
Assay [17] relates to Plasmodium falciparum. The assay is described as follows: microbe, parasite or virus in culture. Conditions: QF5, 72 h.
Description: Antiplasmodial activity against Plasmodium falciparum QF5 after 72 hrs by SYBR green assay
Assay [18] has as its system Plasmodium falciparum. The assay is described as follows: microbe, parasite or virus in culture. Conditions: NIC, 72 h.
Description: Antiplasmodial activity against Plasmodium falciparum NIC after 72 hrs by SYBR green assay
Assay [19] concerns Plasmodium falciparum. The assay is described as follows: microbe, parasite or virus in culture. Particulars: KB8, 72 h.
Description: Antiplasmodial activity against Plasmodium falciparum KB8 after 72 hrs by SYBR green assay
In assay [20] the test system is Plasmodium falciparum. The assay is described as follows: microbe, parasite or virus in culture. Conditions: KH7, 72 h.
Description: Antiplasmodial activity against Plasmodium falciparum KH7 after 72 hrs by SYBR green assay
For assay [21], the system named is Plasmodium falciparum. The assay is described as follows: microbe, parasite or virus in culture. Particulars: JH6, 72 h.
Description: Antiplasmodial activity against Plasmodium falciparum JH6 after 72 hrs by SYBR green assay
For assay [22], the system named is Plasmodium falciparum. The assay is described as follows: microbe, parasite or virus in culture. Particulars: HB3 pDT, 72 h.
Description: Antiplasmodial activity against transgenic Plasmodium falciparum HB3 pDT harboring polymorphic DHFR after 72 hrs by SYBR green assay
The subject of assay [23] is Plasmodium falciparum. The assay is described as follows: microbe, parasite or virus in culture. Conditions: JB12, 72 h.
Description: Antiplasmodial activity against Plasmodium falciparum JB12 after 72 hrs by SYBR green assay
The test system of assay [24] is Plasmodium falciparum. The assay is described as follows: microbe, parasite or virus in culture. Particulars: JF11, 72 h.
Description: Antiplasmodial activity against Plasmodium falciparum JF11 after 72 hrs by SYBR green assay
The subject of assay [25] is Plasmodium falciparum. The assay is described as follows: microbe, parasite or virus in culture. Conditions: DAN, 72 h.
Description: Antiplasmodial activity against Plasmodium falciparum DAN after 72 hrs by SYBR green assay
The test system of assay [26] is Plasmodium falciparum. The assay is described as follows: microbe, parasite or virus in culture. Conditions: NF10, 72 h.
Description: Antiplasmodial activity against Plasmodium falciparum NF10 after 72 hrs by SYBR green assay
For assay [27], the system named is Plasmodium falciparum. The assay is described as follows: microbe, parasite or virus in culture. Conditions: LC12, 72 h.
Description: Antiplasmodial activity against Plasmodium falciparum LC12 after 72 hrs by SYBR green assay
The subject of assay [28] is Plasmodium falciparum. The assay is described as follows: microbe, parasite or virus in culture. Particulars: XE7, 72 h.
Description: Antiplasmodial activity against Plasmodium falciparum XE7 after 72 hrs by SYBR green assay
Assay [29] concerns Plasmodium falciparum. The assay is described as follows: microbe, parasite or virus in culture. Conditions: AL2, 72 h.
Description: Antiplasmodial activity against Plasmodium falciparum AL2 after 72 hrs by SYBR green assay
For assay [30], the system named is Plasmodium falciparum. The assay is described as follows: microbe, parasite or virus in culture. Conditions: JC9, 72 h.
Description: Antiplasmodial activity against Plasmodium falciparum JC9 after 72 hrs by SYBR green assay
Assay [31] deals with Plasmodium falciparum. The assay is described as follows: microbe, parasite or virus in culture. Particulars: WE2, 72 h.
Description: Antiplasmodial activity against Plasmodium falciparum WE2 after 72 hrs by SYBR green assay
The subject of assay [32] is Plasmodium falciparum. The assay is described as follows: microbe, parasite or virus in culture. Conditions: DEV, 72 h.
Description: Antiplasmodial activity against Plasmodium falciparum DEV after 72 hrs by SYBR green assay
For assay [33], the system named is Plasmodium falciparum. The assay is described as follows: microbe, parasite or virus in culture. Particulars: KA6, 72 h.
Description: Antiplasmodial activity against Plasmodium falciparum KA6 after 72 hrs by SYBR green assay
Assay [34] relates to Plasmodium falciparum. The assay is described as follows: microbe, parasite or virus in culture. Conditions: JC3, 72 h.
Description: Antiplasmodial activity against Plasmodium falciparum JC3 after 72 hrs by SYBR green assay
Assay [35] concerns Plasmodium falciparum. The assay is described as follows: microbe, parasite or virus in culture. Particulars: LA10, 72 h.
Description: Antiplasmodial activity against Plasmodium falciparum LA10 after 72 hrs by SYBR green assay
The subject of assay [36] is Plasmodium falciparum. The assay is described as follows: microbe, parasite or virus in culture. Particulars: 7G8, 72 h.
Description: Antiplasmodial activity against Plasmodium falciparum 7G8 harboring polymorphic DHFR after 72 hrs by SYBR green assay
Assay [37] has as its system Plasmodium falciparum. The assay is described as follows: microbe, parasite or virus in culture. Particulars: WC4, 72 h.
Description: Antiplasmodial activity against Plasmodium falciparum WC4 after 72 hrs by SYBR green assay
Assay [38] relates to Plasmodium falciparum. The assay is described as follows: microbe, parasite or virus in culture. Particulars: XB3, 72 h.
Description: Antiplasmodial activity against Plasmodium falciparum XB3 after 72 hrs by SYBR green assay
Assay [39] concerns Plasmodium falciparum. The assay is described as follows: microbe, parasite or virus in culture. Particulars: W2, 72 h.
Description: Antiplasmodial activity against Plasmodium falciparum W2 harboring polymorphic DHFR after 72 hrs by SYBR green assay
Assay [40] has as its system Plasmodium falciparum. The assay is described as follows: microbe, parasite or virus in culture. Particulars: Dd2, 72 h. The source holds these as a separate data set.
Description: Antiplasmodial activity against Plasmodium falciparum Dd2 harboring polymorphic DHFR after 72 hrs by SYBR green assay
Assay [41] relates to Plasmodium falciparum. The assay is described as follows: microbe, parasite or virus in culture. Particulars: GB4, 72 h.
Description: Antiplasmodial activity against Plasmodium falciparum GB4 harboring polymorphic DHFR after 72 hrs by SYBR green assay
Assay [42] concerns Plasmodium falciparum. The assay is described as follows: microbe, parasite or virus in culture. Particulars: KC2, 72 h.
Description: Antiplasmodial activity against Plasmodium falciparum KC2 after 72 hrs by SYBR green assay
The subject of assay [43] is Plasmodium falciparum.
Description: as §1
Assay [44] deals with Plasmodium falciparum. The assay is described as follows: microbe, parasite or virus in culture. Conditions: HB3, 72 h. This is another data set of the same source.
Description: Antiplasmodial activity against Plasmodium falciparum HB3 harboring polymorphic DHFR after 72 hrs by SYBR green assay
For assay [45], the system named is Plasmodium falciparum. The assay is described as follows: microbe, parasite or virus in culture. Particulars: XG10, 72 h.
Description: Antiplasmodial activity against Plasmodium falciparum XG10 after 72 hrs by SYBR green assay
Assay [46] relates to Plasmodium falciparum. The assay is described as follows: microbe, parasite or virus in culture. Particulars: AUD, 72 h.
Description: Antiplasmodial activity against Plasmodium falciparum AUD after 72 hrs by SYBR green assay
The subject of assay [47] is Plasmodium falciparum. The assay is described as follows: microbe, parasite or virus in culture. Particulars: WF12, 72 h.
Description: Antiplasmodial activity against Plasmodium falciparum WF12 after 72 hrs by SYBR green assay
Assay [48] relates to Plasmodium falciparum. The assay is described as follows: Antiplasmodial activity against Plasmodium falciparum CDY harboring modified mdr1 protein after 72 hrs by SYBR green assay in presence of 0.8 uM P-gp inhibitor verapamil. It counts as functional, organism-based. Conditions: MDR1, 72 h.

Structures are written as SMILES. Where a name gives a salt, the structure may show the parent alone.

In the case of `CCCNC[C@H](O)COc1ccccc1C(=O)CCc1ccccc1`, the IC50 in the assay with Plasmodium falciparum [1] is 0.28 µM.

Turning to `CCN(CC)CCNC(=O)c1cc(Cl)c(N)cc1OC.Cl`, in the assay with Plasmodium falciparum [1], the pIC25 was 4.9.

On to `Nc1ccc(-c2nc3ccc(-c4nc5ccc(N)cc5[nH]4)cc3[nH]2)cc1`, for which the IC50 with Plasmodium falciparum [2] came out at 0.83 µM; with Plasmodium falciparum [3], 0.52 µM; in the assay on Plasmodium falciparum [4] it was 0.74 µM; with Plasmodium falciparum [5] it was 0.74 µM; with Plasmodium falciparum [6], 1 µM; in the assay on Plasmodium falciparum [7], 0.28 µM. Moreover, in the assay with Plasmodium falciparum [1], it took 0.22 µM to reach half-maximal inhibition (IC50).

Consider `Nc1nc(N)c2nc(-c3ccccc3)c(N)nc2n1`, for which the IC50 was 73.5 µM in the assay with Plasmodium falciparum [8]; 3.29 µM with Plasmodium falciparum [9]; 22.2 µM in the assay with Plasmodium falciparum [10]; 4 µM in the assay on Plasmodium falciparum [11]; 8.82 µM in the assay with Plasmodium falciparum [12]; 70 µM in the assay with Plasmodium falciparum [13]. The IC50 came out at 49.4 µM with Plasmodium falciparum [14]; 51.7 µM in the assay on Plasmodium falciparum [3]; 17.1 µM with Plasmodium falciparum [15]; 59.8 µM in the assay with Plasmodium falciparum [16]; 3.54 µM with Plasmodium falciparum [17]; 11.2 µM with Plasmodium falciparum [18]. Besides, the IC50 in the assay on Plasmodium falciparum [19] worked out at 56.3 µM; with Plasmodium falciparum [20] it was 15 µM; in the assay on Plasmodium falciparum [21], 64.8 µM; in the assay with Plasmodium falciparum [22], 95 µM; in the assay with Plasmodium falciparum [23], 65.1 µM; with Plasmodium falciparum [24], 5.11 µM. For the same compound, the IC50 amounted to 69.5 µM in the assay on Plasmodium falciparum [25]; 75.1 µM in the assay on Plasmodium falciparum [26]; 50.1 µM in the assay with Plasmodium falciparum [27]; 18.1 µM with Plasmodium falciparum [28]; 81.8 µM in the assay on Plasmodium falciparum [29]; 43.7 µM in the assay on Plasmodium falciparum [30]. Also, the concentration for half-maximal inhibition (IC50) in the assay on Plasmodium falciparum [31] amounted to 44.6 µM; in the assay on Plasmodium falciparum [32], 60.5 µM; in the assay with Plasmodium falciparum [33] it was 5.19 µM; in the assay with Plasmodium falciparum [34], 4.26 µM; in the assay on Plasmodium falciparum [35], 5.59 µM; with Plasmodium falciparum [36], 154 µM. In addition, the IC50 with Plasmodium falciparum [37] stood at 52.5 µM; in the assay on Plasmodium falciparum [38], 57 µM; in the assay on Plasmodium falciparum [39], 95 µM; with Plasmodium falciparum [40], 141 µM; in the assay with Plasmodium falciparum [41], 5.3 µM; in the assay on Plasmodium falciparum [42], 60.4 µM. For the same compound, the IC50 was 17.1 µM in the assay with Plasmodium falciparum [43]; 176 µM in the assay on Plasmodium falciparum [44]; 8.13 µM with Plasmodium falciparum [45]; 54.2 µM in the assay on Plasmodium falciparum [46]; 5.83 µM in the assay on Plasmodium falciparum [47].

Turning to `CN1C[C@H](C(=O)N[C@]2(C)O[C@@]3(O)[C@@H]4CCCN4C(=O)[C@H](Cc4ccccc4)N3C2=O)C[C@@H]2c3cccc4[nH]cc(c34)C[C@H]21` (stereo in doubt; 1) [DIHYDROERGOTAMINE MESYLATE], in the assay with Plasmodium falciparum [48], the IC50 was found to be 0.022 µM.

`CC[C@@]1(O)C(=O)OCc2c1cc1n(c2=O)Cc2cc3ccccc3nc2-1` [CAMPTOTHECIN]: the IC50 in the assay on Plasmodium falciparum [2] turned out to be 0.89 µM; in the assay on Plasmodium falciparum [3], 1.41 µM; in the assay on Plasmodium falciparum [4], 0.89 µM; in the assay on Plasmodium falciparum [5], 1.12 µM; in the assay with Plasmodium falciparum [6], 1.32 µM; in the assay on Plasmodium falciparum [7], 0.83 µM. In the assay on Plasmodium falciparum [1], this compound displayed a 50% inhibitory concentration (IC50) of 0.56 µM.

Regarding `Cc1cc(N)c2ccccc2[n+]1CCCCCCCCCC[n+]1c(C)cc(N)c2ccccc21` [DEQUALINIUM CHLORIDE], the IC50 in the assay on Plasmodium falciparum [2] and in the assay with Plasmodium falciparum [5] was 0.1 µM each time.

As to `COc1cc(Cc2cnc(N)nc2N)cc(OC)c1OC` [TRIMETHOPRIM], the IC50 in the assay with Plasmodium falciparum [22] was 117 µM; in the assay with Plasmodium falciparum [36] it was 194 µM; in the assay with Plasmodium falciparum [40], 169 µM; in the assay on Plasmodium falciparum [41], 4.1 µM; with Plasmodium falciparum [44], 158 µM.
